Experiments:
[1] = molecular target: Beta-lactamase TEM (Enterobacter cloacae) (UniProt Q6W9J1); assay: Ratio of Kcat to Km of Enterobacter cloacae beta-lactamase TEM-1
Enterobacter cloacae [2] = assay: Activity of Enterobacter cloacae beta-lactamase OXA-1
Enterobacter cloacae [3] = assay: Ratio of Kcat to Km of Enterobacter cloacae beta-lactamase OXA-1

Beta-lactamase TEM (Enterobacter cloacae), sequence (Q6W9J1 as listed by the source): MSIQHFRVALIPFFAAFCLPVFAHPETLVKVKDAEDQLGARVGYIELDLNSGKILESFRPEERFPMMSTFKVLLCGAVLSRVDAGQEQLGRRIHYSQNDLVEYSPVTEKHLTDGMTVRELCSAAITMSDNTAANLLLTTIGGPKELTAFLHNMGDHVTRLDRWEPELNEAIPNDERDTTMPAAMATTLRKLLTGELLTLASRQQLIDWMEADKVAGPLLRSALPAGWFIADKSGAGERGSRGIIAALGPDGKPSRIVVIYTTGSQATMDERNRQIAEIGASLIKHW

Structure (SMILES) | Ratio [1] | Km (Enterobacter cloacae [2]) [µM] | Ratio (Enterobacter cloacae [3]) | kcat (Enterobacter cloacae [2]) [s⁻¹]
CC(=O)OCC1=C(C(=O)O)N2C(=O)/C(=N/O)[C@H]2S(=O)(=O)C1 | 1690 s⁻¹ M⁻¹ | > 400 | 990 s⁻¹ M⁻¹ | 
CC(=O)OCC1=C(C(=O)O)N2C(=O)[C@@H](NC(=O)Cc3cccs3)[C@H]2SC1 | 4.85 ×10⁵ /s/M | 13.9 | 8.51 ×10⁴ /s/M | 1.81
CC(=O)OCC1=C(C(=O)O)N2C(=O)[C@@H](N(O)C=O)[C@H]2SC1 | 25 s⁻¹ M⁻¹ | > 400 | 75 s⁻¹ M⁻¹ | 
CC(=O)OCC1=C(C(=O)O)N2C(=O)[C@@H](N(O)C(=O)Cc3ccccc3)[C@H]2SC1 | 2620 s⁻¹ M⁻¹ | 60 | 2020 s⁻¹ M⁻¹ | 0.121
CC(=O)OCC1=C(C(=O)O)N2C(=O)/C(=N/O)[C@H]2SC1 | 158 s⁻¹ M⁻¹ | > 400 | 88 s⁻¹ M⁻¹ | 
CC(=O)OCC1=C(C(=O)O)N2C(=O)[C@@H](NC=O)[C@H]2SC1 | 6 ×10⁴ /s/M | 323 | 3160 s⁻¹ M⁻¹ | 1.02
CC1=C(C(=O)O)N2C(=O)/C(=N/O)[C@H]2S(=O)(=O)C1 | 40 s⁻¹ M⁻¹ |  |  | 
CC(=O)OCC1=C(C(=O)O)N2C(=O)[C@@H](NO)[C@H]2SC1 | 2620 s⁻¹ M⁻¹ | > 400 | 66 s⁻¹ M⁻¹ | 
